From ChEMBL document CHEMBL5052852, “Substituted hydantoinamides as adamts7 antagonists” (2021)

Columns and labels:
[1] = Inhibition of recombinant rat/human ADAMTS7 hybrid using HiLyteFluor-488 DELSSMVLELRGLRT-K(QXL520)-E-NH2 as substrate incubated for 120 mins and measured by FRET assay
[2] = Inhibition of recombinant rat/human ADAMTS12 hybrid using HiLyteFluor-488 DELSSMVLELRGLRT-K(QXL520)-E-NH2 as substrate incubated for 120 mins and measured by FRET assay

SMILES	IC50 [1]	IC50 [2]
O=C1NC(=O)[C@](CNC(=O)c2cnn(-c3ccc(Cl)cc3F)n2)(C2CC2)N1	60 nM	1000 nM
O=C1NC(=O)[C@](CNC(=O)c2cnn(-c3ncc(F)cc3F)n2)(C2CC2)N1	190 nM	6200 nM
O=C1NC(=O)[C@](CNC(=O)c2cnn(-c3ccc(F)cc3Cl)n2)(C2CC2)N1	320 nM	17000 nM
O=C1NC(=O)C(CNC(=O)c2cnn(-c3ccc(F)cc3)n2)(c2cscn2)N1 (stereo not given)	12 nM	2500 nM
Cn1ccnc1C1(CNC(=O)c2cnn(-c3ccc(F)c(F)c3)n2)NC(=O)NC1=O (stereo not given)	3 nM	46 nM
O=C1NC(=O)[C@](CNC(=O)c2cnn(-c3ccc(Cl)cc3Cl)n2)(C2CC2)N1	130 nM	7100 nM
Cn1ccnc1C1(CNC(=O)c2cnn(-c3ccc(Cl)c(F)c3)n2)NC(=O)NC1=O (stereo not given)	2 nM	41 nM
O=C1NC(=O)C(CNC(=O)c2cnn(-c3ccccc3)n2)(c2ccncc2)N1 (racemic)	20 nM	2800 nM
O=C1NC(=O)C(CNC(=O)c2cnn(-c3ccccc3)n2)(C2CCC2)N1 (racemic)	55 nM	14000 nM
O=C1NC(=O)C(CNC(=O)c2cnn(-c3ccccc3)n2)(C2CCOCC2)N1 (racemic)	128 nM	9950 nM
O=C1NC(=O)C(CNC(=O)c2cnn(-c3ccccc3)n2)(c2ccccn2)N1 (racemic)	26 nM	4800 nM
CCCCC1(CNC(=O)c2cnn(-c3ccccc3)n2)NC(=O)NC1=O (racemic)	89 nM	15000 nM
CC(C)C1(CNC(=O)c2cnn(-c3ccccc3)n2)NC(=O)NC1=O (racemic)	265 nM	14500 nM
CC(C)(C)C1(CNC(=O)c2cnn(-c3ccc(F)cc3)n2)NC(=O)NC1=O (racemic)	69 nM	6000 nM
CC(C)(C)C1(CNC(=O)c2cnn(-c3ccc(C(F)(F)F)c(F)c3)n2)NC(=O)NC1=O (racemic)	210 nM	50000 nM
CC(C)(C)C1(CNC(=O)c2cnn(-c3ccc(C(F)(F)F)cc3)n2)NC(=O)NC1=O (racemic)	620 nM	50000 nM
CC(C)(C)C1(CNC(=O)c2cnn(-c3cccc(F)c3)n2)NC(=O)NC1=O (racemic)	260 nM	6600 nM
CC(C)(C)C1(CNC(=O)c2cnc(-c3ccccc3)o2)NC(=O)NC1=O (racemic)	480 nM	50000 nM
O=C1NC(=O)C(CNC(=O)c2cnn(-c3ccccc3)n2)(C2CCCOC2)N1 (racemic)	62 nM	8500 nM
O=C1NC(=O)C(CNC(=O)c2cnn(-c3ccc(F)cc3)n2)(c2ccccn2)N1 (racemic)	10 nM	3000 nM
O=C1NC(=O)C(CNC(=O)c2cnn(-c3ccccc3)n2)(C2CCCCC2)N1 (racemic)	145 nM	50000 nM
O=C1NC(=O)C(CNC(=O)c2cnn(-c3ccccc3)n2)(C2CCCC2)N1 (racemic)	191 nM	50000 nM
CC(C)(C)C1(CNC(=O)c2cnn(-c3ccccc3)n2)NC(=O)NC1=O (racemic)	70 nM	15000 nM
CC(C)C1(CNC(=O)c2cnn(-c3ccc(F)cc3)n2)NC(=O)NC1=O (racemic)	42 nM	16000 nM
O=C1NC(=O)C(CNC(=O)c2cnn(-c3ccc(F)cc3)n2)(c2cccnc2)N1 (racemic)	30 nM	4500 nM
CC(C)(C)C1(CNC(=O)c2cnn(-c3ccccc3)c2)NC(=O)NC1=O (racemic)	550 nM	5600 nM
O=C1NC(=O)C(CNC(=O)c2cnn(-c3ccc(F)cc3)n2)(c2ccncc2)N1 (racemic)	140 nM	2900 nM
CCCC1(CNC(=O)c2cnn(-c3ccccc3)n2)NC(=O)NC1=O (racemic)	240 nM	19000 nM
O=C1NC(=O)C(CNC(=O)c2cnn(-c3ccccc3)n2)(CC2CC2)N1 (racemic)	670 nM	25000 nM
O=C1NC(=O)C(CNC(=O)c2cnn(-c3ccccc3)n2)(C2CCOC2)N1 (racemic)	170 nM	22000 nM
